The results in this text go back to patent publication US11014895B2, “Heterocyclic urea compound, and drug composition and application thereof” (CHINA PHARMACEUTICAL UNIVERSITY, priority 2017, dated 2021).

One test has as its target IDO1 enzyme (Homo sapiens, UniProt P14902). As to the kind of experiment: Determination of biochemical activity of IDO1 enzyme (absorbance at 320 nm). The settings on record: room temperature, 3 hours. The method, boiled down:
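Enzyme and compound were reacted in sodium hydrogen phosphate buffer (pH 7-8) for 3 hours at room temperature. Absorbance at 320 nm gave inhibition rate, and IC50 was calculated from it.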

In test [1] the target is T1, IDO1 enzyme in the Hela cell (Homo sapiens, UniProt P14902).
T1 construct: endogenous in cells; host or cells: HeLa cells stimulated with interferon γ (100 ng/ml)
T1 sequence (P14902 whole entry): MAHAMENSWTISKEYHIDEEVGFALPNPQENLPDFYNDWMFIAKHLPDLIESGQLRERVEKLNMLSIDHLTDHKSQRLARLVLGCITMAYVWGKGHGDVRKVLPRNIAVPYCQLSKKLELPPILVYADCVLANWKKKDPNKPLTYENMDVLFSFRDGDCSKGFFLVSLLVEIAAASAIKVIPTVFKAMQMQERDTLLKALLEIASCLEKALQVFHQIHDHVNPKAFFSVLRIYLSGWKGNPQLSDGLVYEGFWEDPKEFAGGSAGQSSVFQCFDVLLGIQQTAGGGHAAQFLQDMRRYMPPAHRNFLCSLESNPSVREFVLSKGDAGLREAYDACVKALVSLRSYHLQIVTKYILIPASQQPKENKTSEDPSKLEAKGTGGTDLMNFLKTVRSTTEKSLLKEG
As to the kind of experiment: Cell activity: interferon γ-stimulated Hela cells, absorbance of supernatant at 480 nm. To be noted: interferon γ 100 ng/ml, 72 hours. The class given is cell-based. The method, boiled down:
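HeLa cells treated with compound plus interferon γ (100 ng/ml final) and cultured 72 h at 37 °C. Supernatant treated with trichloroacetic acid 30 min at 50 °C, centrifuged, then mixed with 2% dimethylaminobenzaldehyde in acetic acid; absorbance read at 480 nm.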

SMILES strings stand for the structures.

Sequence of IDO1 enzyme (P14902 whole entry): as above

Regarding `O=C(NCCO)Nc1cocc1/C(=N/O)Nc1ccc(F)c(Br)c1` [Embodiment 68, (Z)-1-(4-(N-(3-bromo-4-fluorophenyl)-N′-hydroxyaminoiminomethyl)-furan-3-substituted)+3-(2-hydroxyethyl)urea], the IC50 (on IDO1 enzyme; in test [1]) was 0.1 to 1 µM throughout.
For `NCCNC(=O)Nc1cocc1/C(=N/O)Nc1ccc(F)c(Br)c1` [Embodiment 69, (Z)-1-(4-(N-(3-bromo-4-fluorophenyl)-N′-hydroxyaminoiminomethyl)-furan-3-substituted)-3-(2-aminoethyl)urea], the half-maximal inhibitory concentration (IC50) (at IDO1 enzyme; in test [1]) was 0.1 to 1 µM in each case.
With `CCCNC(=O)Nc1cocc1/C(=N/O)Nc1ccc(F)c(Br)c1` [Embodiment 70, (Z)-1-(4-(N-(3-bromo-4-fluorophenyl)-N′-hydroxyaminoiminomethyl)-furan-3-substituted)-3-propylurea], the IC50 (against IDO1 enzyme; in test [1]) was 0.1 to 1 µM each time.
On to `CC(C)NC(=O)Nc1cocc1/C(=N/O)Nc1ccc(F)c(Br)c1` [Embodiment 71, (Z)-1-(4-(N-(3-bromo-4-fluorophenyl)-N′-hydroxyaminoiminomethyl)-furan-3-substituted)-3-isopropylurea], for which the IC50 (at IDO1 enzyme; in test [1]) was 0.1 to 1 µM in each case.
Consider `CS(=O)(=O)NCCNC(=O)Nc1cocc1/C(=N/O)Nc1ccc(F)c(Br)c1` [Embodiment 72, (Z)-1-(4-(N-(3-bromo-4-fluorophenyl)-N′-hydroxyaminoiminomethyl)-furan-3-substituted)-3-(2-methamidoethyl)urea], for which the IC50 (against IDO1 enzyme; in test [1]) was 0.1 to 1 µM throughout.
Take `O=C(Nc1cocc1/C(=N/O)Nc1ccc(F)c(Br)c1)Nc1cccc2[nH]ccc12` [Embodiment 73, (Z)-1-(4-(N-(3-bromo-4-fluorophenyl)-N′-hydroxyaminoiminomethyl)-furan-3-substituted)-3-(4-aminoindole)urea]: the IC50 (against IDO1 enzyme; in test [1]) was 0.1 to 1 µM each time.
For `O=C(Nc1cocc1/C(=N/O)Nc1ccc(F)c(Br)c1)Nc1c[nH]c2ccccc12` [Embodiment 74, (Z)-1-(4-(N-(3-bromo-4-fluorophenyl)-N′-hydroxyaminoiminomethyl)-furan-3-substituted)-3-(3-aminoindole)urea], the IC50 (against IDO1 enzyme; in test [1]) was 0.1 to 1 µM each time.
Take `O=C(Nc1cccnc1)Nc1cocc1/C(=N/O)Nc1ccc(F)c(Br)c1` [Embodiment 75, (Z)-1-(4-(N-(3-bromo-4-fluorophenyl)-N′-hydroxyaminoiminomethyl)-furan-3-substituted)-3-(3-aminopyridine)urea]: the IC50 (against IDO1 enzyme; in test [1]) was 0.1 to 1 µM throughout.
For the molecule `O=C(Nc1cc[nH]c1)Nc1cocc1/C(=N/O)Nc1ccc(F)c(Br)c1` [Embodiment 76, (Z)-1-(4-(N-(3-bromo-4-fluorophenyl)-N′-hydroxyaminoiminomethyl)-furan-3-substituted)-3-(1H-pyrrole-3-substituted)urea], the IC50 (against IDO1 enzyme; in test [1]) was more than 1 µM each time.
On to `O=C(Nc1ccoc1)Nc1cocc1/C(=N/O)Nc1ccc(F)c(Br)c1` [Embodiment 77], for which the IC50 (at IDO1 enzyme; in test [1]) was more than 1 µM in each case.
Take `O=C(Nc1ccsc1)Nc1cocc1/C(=N/O)Nc1ccc(F)c(Br)c1` [Embodiment 78]: the IC50 (against IDO1 enzyme; in test [1]) was more than 1 µM each time.
Regarding `COc1ccc(NC(=O)Nc2nocc2/C(=N/O)Nc2ccc(F)c(Br)c2)cc1` [Embodiment 79, (Z)-1-(4-(N-(3-bromo-4-fluorophenyl)-N′-hydroxyaminoiminomethyl)-isoxazole-3-substituted)-3-(4-methoxyphenyl)urea], the IC50 (against IDO1 enzyme; in test [1]) was 0.1 to 1 µM each time.
As to `COc1cccc(NC(=O)Nc2nocc2/C(=N/O)Nc2ccc(F)c(Br)c2)c1` [Embodiment 80, (Z)-1-(4-(N-(3-bromo-4-fluorophenyl)-N′-hydroxyaminoiminomethyl)-isoxazole-3-substituted)-3-(3-methoxyphenyl)urea], the IC50 (at IDO1 enzyme; in test [1]) was more than 1 µM each time.
As to `O=C(Nc1nocc1/C(=N/O)Nc1ccc(F)c(Br)c1)NC1CCCCC1` [Embodiment 82, (Z)-1-(4-(N-(3-bromo-4-fluorophenyl)-N′-hydroxyaminoiminomethyl)-isoxazole-3-substituted)-3-(cyclohexyl)urea], the IC50 (at IDO1 enzyme; in test [1]) was 0.1 to 1 µM in each case.
Turning to `O=C(Nc1nocc1/C(=N/O)Nc1ccc(F)c(Br)c1)NC1CCCC1` [Embodiment 83, (Z)-1-(4-(N-(3-bromo-4-fluorophenyl)-N′-hydroxyaminoiminomethyl)-isoxazole-3-substituted)-3-(cyclopentyl)urea], the IC50 (on IDO1 enzyme; in test [1]) was more than 1 µM in each case.
For the molecule `O=C(Nc1nocc1/C(=N/O)Nc1ccc(F)c(Br)c1)NC1CCC(O)CC1` (stereo not shown) [Embodiment 84, (Z)-1-(4-(N-(3-bromo-4-fluorophenyl)-N′-hydroxyaminoiminomethyl)-isoxazole-3-substituted)-3-(4-hydroxycyclohexyl)urea], the IC50 (at IDO1 enzyme; in test [1]) was 0.1 to 1 µM in each case.
For `O=C(Nc1nocc1/C(=N/O)Nc1ccc(F)c(Br)c1)NC1CCNCC1` [Embodiment 85, (Z)-1-(4-(N-(3-bromo-4-fluorophenyl)-N′-hydroxyaminoiminomethyl)-isoxazole-3-substituted)-3-(piperidine-4-substituted)urea], the IC50 (at IDO1 enzyme; in test [1]) was less than 0.001 µM throughout.
As for `O=C(Nc1nocc1/C(=N/O)Nc1ccc(F)c(Br)c1)NC1CC1` [Embodiment 86, (Z)-1-(4-(N-(3-bromo-4-fluorophenyl)-N′-hydroxyaminoiminomethyl)-isoxazole-3-substituted)-3-(cyclopropyl)urea], the IC50 (at IDO1 enzyme; in test [1]) was more than 1 µM in each case.
`NC1CCC(NC(=O)Nc2nocc2/C(=N/O)Nc2ccc(F)c(Br)c2)CC1` (stereo not shown) [Embodiment 87, (Z)-1-(4-(N-(3-bromo-4-fluorophenyl)-N′-hydroxyaminoiminomethyl)-isoxazole-3-substituted)-3-(4-aminocyclohexyl)urea]: the IC50 (against IDO1 enzyme; in test [1]) was less than 0.001 µM in each case.
As to `NCCCNC(=O)Nc1nocc1/C(=N/O)Nc1ccc(F)c(Br)c1` [Embodiment 88, (Z)-1-(4-(N-(3-bromo-4-fluorophenyl)-N′-hydroxyaminoiminomethyl)-isoxazole-3-substituted)-3-(3-propyl)urea], the IC50 (on IDO1 enzyme; in test [1]) was less than 0.001 µM throughout.
For the molecule `O=C(NCCO)Nc1nocc1/C(=N/O)Nc1ccc(F)c(Br)c1` [Embodiment 89, (Z)-1-(4-(N-(3-bromo-4-fluorophenyl)-N′-hydroxyaminoiminomethyl)-isoxazole-3-substituted)+3-(2-hydroxyethyl)urea], the IC50 (against IDO1 enzyme; in test [1]) was less than 0.001 µM in each case.
Consider `NCCNC(=O)Nc1nocc1/C(=N/O)Nc1ccc(F)c(Br)c1` [Embodiment 90, (Z)-1-(4-(N-(3-bromo-4-fluorophenyl)-N′-hydroxyaminoiminomethyl)-isoxazole-3-substituted)+3-(2-aminoethyl)urea], for which the IC50 (at IDO1 enzyme; in test [1]) was less than 0.001 µM in each case.
As to `CCCNC(=O)Nc1nocc1/C(=N/O)Nc1ccc(F)c(Br)c1` [Embodiment 91, (Z)-1-(4-(N-(3-bromo-4-fluorophenyl)-N′-hydroxyaminoiminomethyl)-isoxazole-3-substituted)-3-(propyl)urea], the IC50 (against IDO1 enzyme; in test [1]) was 0.1 to 1 µM throughout.
